Earlier results in patent US8470366B2, “Nicotine containing soft gelatin pastilles” (priority 2010, dated 2013).

How the values were obtained:
[1] = background statement
[2] = background statement; remark: listed apart in the source

| Structure (SMILES) | Physiological activity relative to (−) nicotine [1] | Half life of nicotine in the body [2] |
| --- | --- | --- |
| CN1CCCC1c1cccnc1 (single isomer, unassigned; (+)) [(+) nicotine] | one-half |  |
| CN1CCCC1c1cccnc1 (centres unmarked) [nicotine, Nicotine] |  | around two |
